Measured values published in PubChem BioAssay AID179 (DTP/NCI, 2004).
Values joined by “and” are separate entries in the source; they are usually repeats but may differ in a detail not shown here. Equal values may be shown once. Active and inactive are the calls of the source.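 The calls were made as follows: active = compounds giving half or more protection of infected cells from virus-caused growth loss, again on retest; inactive = the rest.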 Where a SMILES comes first, the peptide text is derived from it. The star is where a group is joined. Cbz = O=C(OCc1ccccc1)*

Tested on: CEM cells HIV-1 protection, formazan growth assay
Assay: NCI AIDS Antiviral Assay
Details: for IC50: measured here: growth of uninfected CEM cells
In short: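 Protection of CEM cells against HIV-1 measured as cell growth via soluble formazan read-out, with five concentrations tested on both infected and uninfected cells; failure to protect may reflect toxicity.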

Structure (SMILES)	EC50 [µM]	IC50	outcome
CN(C)c1ccc(/C=C/C=C\C2=CC(=C\C=C/C=C3C=CC(=[N+](C)C)C=C3)/Sc3ccccc32)cc1	> 1.78	> 1.78 µM	–
Cc1c(C2=NN=C(N=Nc3c(O)cccc3O)/C2=C/c2ccccc2)c(=O)n(-c2ccccc2)n1C	–	–	inactive
CC(=O)OC(=C(C#N)C#N)c1nccnc1C(C)=O	> 200	11.2 µM	–
CCCCCCCCCCCCCCCCSS(=O)(=O)CCCCCCCC	> 74.1	> 74.1 µM	–
O=C1C(Cl)=C(O)C2(Cl)C(Cl)=C(Cl)C12Cl (centres undefined)	–	–	inactive
O=C(CSc1nnc(Cc2ccccc2)o1)Nc1ccc(Cl)cc1Cl	> 66.1	> 66.1 µM	–
CC(C)CCC[C@@H](C)C1CCC2[C@@H]3CC=C4C[C@@H](OS(=O)(=O)O)CC[C@]4(C)C3CC[C@@]21C (some centres undefined)	–	–	active
CC(C)=CCN1CC(C)C(=O)Nc2ccccc21 (centres undefined)	19.5	117 µM	–
CN(CCNC(=O)c1cn(C)c2c1ccc1ccccc12)CCNC(=O)c1cn(C)c2c1ccc1ccccc12	> 200	3.09 µM	–
COc1ccc(-c2cnoc2-c2ccc(OC)c(OC)c2)cc1OC	> 55	0.355 µM	–
O=C(O)c1ccc2c(c1)CC1(C2)Cc2ccccc2C1=O (centres undefined)	> 200	> 200 µM	–
COc1cc(OC)c(C2c3cc4c(cc3OC(N3CCCC3)C2C)OCO4)c(OC)c1 (centres undefined)	> 200	4.37 µM	–
COc1cc2c(cc1O)C(CSC)Cc1cc(OC)c(OC)cc1N(C)CCC2 (centres undefined)	> 200	38.9 µM	–
NC1(CCNC(=O)c2ccccc2)CCN(C(=O)c2ccccc2)CC1	> 200	145 µM	–
Cc1c2cc(O)c(=O)cc-2oc2cc(O)c(O)cc12	> 200	12.6 µM and 39.8 µM	–
COc1ccc(COCC(Cn2ccnc2)OCc2ccc(C(=O)O)cc2)cc1 (centres undefined)	> 631	589 µM	–
COP1(=O)OCC(C)(C)CO1	> 1380	> 1380 µM	–
COC(=O)c1ccc(NCc2cc(O)ccc2O)cc1	> 200	11.7 µM	–
CCN(CC)C(=O)CCn1ccc(=O)[nH]c1=O	> 1050	> 1050 µM	–
CC(C)(C)N=C1C(=O)C2(C)CCC1C2(C)C (centres undefined)	> 20	> 20 µM	–
Cc1ccc2ccc(-c3ccccc3)c3c2c1C(=O)c1ccccc1C3=O	–	–	inactive

Structure (SMILES)	EC50 [µM]	IC50	outcome
O=C1NCC2(CCN(Cc3ccccc3)CC2)N1	> 200	> 200 µM	–
O=C1C2CN(Cc3ccccc3)CC1CN(Cc1ccccc1)C2	> 214	141 µM	–
S=C(NNc1ccccc1)SSSC(=S)NNc1ccccc1	> 200	26.3 µM	–
COc1ccc(C2C(C(C)=O)=C(C)NC(C)=C2C(C)=O)cc1	> 200	> 200 µM	–
CC12OC3(C(O)C1O)C(C(=O)O[C@H]3CO[Si](C)(C)C(C)(C)C)C2S(=O)(=O)c1ccccc1 (some centres undefined)	–	–	inactive
CSC(=S)Nc1cccc(C)n1	> 200	102 µM	–
CCOC(=O)C1CCn2c(nc3c(=O)n(C)c(=O)n(C)c32)S1 (centres undefined)	–	–	inactive
COc1ccc(-c2coc3cc(OC)c(OC)c(OC)c3c2=O)cc1	> 200	> 200 µM	–
Cc1ccc(S(=O)(=O)N2CCCSCCSCCCSCC2)cc1	> 17.8	> 17.8 µM	–
CCOC(=O)C1=NN(c2ccccc2)C(=O)/C1=C/N1C(=O)/C(=C/c2ccc([N+](=O)[O-])cc2)SC1=S	> 200	23.4 µM	–
CCCCC1(N=[N+]=[N-])C(=O)C2C=CC=C3c4ccccc4N(C1=O)C32 (centres undefined)	–	–	inactive
CCOC(=O)Oc1cc2ccsc2c2c1c1ccccc1n2C(=O)OCC	> 200	35.5 µM	–
O=C(O)C1=CN(c2ccncc2)C(c2ccco2)=CC1c1ccccc1[N+](=O)[O-] (centres undefined)	> 200	4.79 µM	–
CCN(CCCl)c1cc(C[N+](C)(C)[O-])cc(NC(=O)c2ccc(C(=O)Nc3cc(C[N+](C)(C)[O-])cc(N(CC)CCCl)c3)cc2)c1	> 200	36.3 µM	–
COc1ccc2cc1Oc1ccc(cc1)C[C@H]1c3cc(c(OC)cc3CCN1C)Oc1c(OC)c(OC)cc3c1[C@H](C2)N(C)CC3	> 21.9	12.3 µM	inactive
CC(=O)NC(CCCNC(=O)NCCCl)C(=O)NCc1ccccc1 (centres undefined)	> 676	> 676 µM	–
COC1/C=C\OC2(C)Oc3c(C)c(O)c4c(O)c(c(C=Nc5ccccc5C)c(O)c4c3C2=O)NC(=O)/C(C)=C\C=C/C(C)C(O)C(C)C(O)C(C)C(OC(C)=O)C1C (centres undefined)	> 200	29.5 µM	–
NC(=O)C(CSSCC(NC(=O)OCc1ccccc1)C(N)=O)NC(=O)OCc1ccccc1 (centres undefined)	> 200	18.2 µM	–
O/N=C1\CCc2nonc2\C1=N/Nc1ccccc1	> 200	> 200 µM	–
CCOC(=O)CCC(NC(=O)C(CC(=O)OC)NC(=O)OCc1ccccc1)C(=O)NC(CC(=O)OC)C(=O)NC(CCC(=O)OCC)C(=O)NC(CC(=O)OC)C(=O)NC(CCC(=O)OCC)C(=O)NC(CC(=O)OCC)C(=O)OCC (centres undefined) (Cbz-D(OMe)E(OEt)D(OMe)E(OEt)D(OMe)E(OEt)D(OEt)-OEt; configuration not given here)	> 200	> 200 µM	–
O=S(=O)(NC1CCC[C@H]1O)c1ccccc1 (some centres undefined)	–	–	inactive

Structure (SMILES)	EC50 [µM]	IC50	outcome
NC(=O)c1nnsc1NC=O	> 200	> 200 µM	–
COc1ccc(CCc2ncc[nH]2)cc1	> 708	> 708 µM	–
Cc1cc2c(c(C(=O)NCCC(=O)O)c1)Oc1c(cc(C)cc1C(=O)NCCC(=O)O)S2	> 200	> 200 µM	–
Cc1ccccc1N1C(=O)C(=O)c2cccc(C)c21	> 200	33.1 µM	–
C/C=C(/CCC1NCCC2c3ccccc3NC12)[Si](C)(C)C (centres undefined)	–	–	inactive
COc1cc(OC)c2c(=O)c3c([N+](=O)[O-])cccc3n(C)c2c1	> 100	> 100 µM	–
CC1(C)OCC(/C=C\C(O)CC2(C)OCCO2)CO1 (centres undefined)	–	–	inactive
O=C(NCCCCN(CCCNC(=O)C(F)(F)F)Cc1ccc2ccccc2c1)C(F)(F)F	> 200	34.7 µM	–
CC12CCC(CC1(Cl)Cl)C2 (centres undefined)	> 200	> 200 µM	–
CC1(C)Oc2ccc3c(=O)cc(-c4ccc(F)cc4)oc3c2C1C(=O)O (centres undefined)	> 200	> 200 µM	–
O=C(O)CCOCCCCCCCCCl	–	–	inactive
O=C1CC2(CCN(Cc3ccccc3)CC2)C(=O)N1N1CCCCC1	> 200	> 200 µM	–
O=C1c2cccc3cccc(c23)C(=O)N1CCNCCN1C(=O)c2cccc3cccc(c23)C1=O	> 29.5	10.5 µM	–
CCCOCC(=O)OC	> 1910	> 1910 µM	–
COC(=O)C(=O)C(C(=O)C=C(C)C)C(=O)C(=O)Nc1nc2ccc([N+](=O)[O-])cc2s1 (centres undefined)	> 60.3	> 60.3 µM	–
NC(=S)N/N=C1/C(=O)N(c2ccc(Cl)cc2Cl)C(=O)C(=O)C1c1nc2ccccc2s1 (centres undefined)	> 72.4	> 72.4 µM	–
CC(C)(N=NC(C)(C)C1=NCCN1)C1=NCCN1	> 200	105 µM and 83.2 µM	–
CCOC(=O)/C(=C\c1ccc(OC)cc1)[Se]c1ccccc1	> 20	> 20 µM	–
Cn1cc/c(=N\N=c2/ccn(C)c3ccccc23)c2ccccc21	> 115	5.01 µM	–
C/C(CCc1ccccc1)=N\Nc1ccc([N+](=O)[O-])cc1[N+](=O)[O-]	> 21.9	> 21.9 µM	–
COc1cc(Br)c(/C(=C\c2ccccc2N)C(=O)O)cc1OC	–	–	inactive

Structure (SMILES)	EC50 [µM]	IC50	outcome
CCOC(=O)C(=O)Nc1ccc([N+](=O)[O-])cc1C#N	> 355	> 355 µM	–
CCOC(=O)CCC(NC(=O)OCc1ccccc1)C(=O)NC(CCC(=O)OCC)C(=O)NC(CCC(=O)OCC)C(=O)NC(CCC(=O)OCC)C(=O)NC(CCC(=O)OCC)C(=O)OCC (centres undefined)	> 100	> 100 µM	–
O=C1C=C2CC3=CC(=O)C=C(CC4=CC(=O)C=C(CC5=CC(=O)C=C(CC(=C1)C2=O)C5=O)C4=O)C3=O	> 53.7	0.912 µM	–
N=C1N=Nc2nc(C(C(=O)c3cccc4ccccc34)c3nc4n(c3O)C(=N)N=N4)c(O)n21 (centres undefined)	> 200	117 µM	–
CCCCCC1OC1C/C=C\CCCCCCCC(=O)OCC(O)COC(=O)CCCCCCC/C=C\CC1OC1CCCCC (centres undefined)	> 200	> 200 µM	–
CC1(C)C2C3CCC2C2C[S+]1CC23	> 162	107 µM	–
COc1ccc(/C=C2\SC(=S)N(/C=C/c3nc4ccccc4[nH]c3=O)C2=O)cc1OC	> 200	32.4 µM	–
CCOC(=O)C(C)Sc1nnc(COc2ccccc2OC)n1-c1ccccc1 (centres undefined)	> 200	162 µM	–
CCC[CH2][Sn]1([CH2]CCC)[O]CC(c2ccccn2)C[O]1	> 49	10.7 µM	–
COc1ccc2c3c(cnc2c1)P(C)(=O)CC3 (centres undefined)	–	–	inactive
CO[C@H]1C=CO[C@@]2(C)Oc3c(C)c(O)c4c(O)c(c(CN5CCN(C)CC5)c(O)c4c3C2=O)NC(=O)/C(C)=C\C=C[C@H](C)[C@H](O)C(C)[C@@H](O)C(C)[C@H](OC(C)=O)[C@@H]1C (some centres undefined)	–	–	inactive
COc1ccc(Nc2nnc(-c3nsc4ccccc34)s2)cc1	> 21.4	> 21.4 µM	–
CCOC(=S)SSSC(=S)OCC	> 110	34.7 µM	–
C=CCn1c(-c2ccccc2)nn(CC(=O)Nn2c(C)nc3ccccc3c2=O)c1=S	–	–	inactive
COC(=O)[C@H]1C2CC[C@@H]3C45C[C@@H](c6ccoc6)O[C@@H]4O[C@@H](O2)C31CCC5C (some centres undefined)	> 95.5	> 95.5 µM	–
CCOC(=O)c1c(-c2ccc(OC)c(O)c2)c(C#N)c(=S)n(C2OC(CO)C(O)C(O)C2O)c1-c1ccccc1 (centres undefined)	> 200	> 200 µM	–
COc1ccc(/C=C(\C#N)c2cccnc2)cc1OC	> 25.1	23.4 µM	–
c1ccc([P+](Cc2ccc(C[P+](c3ccccc3)(c3ccccc3)c3ccccc3)s2)(c2ccccc2)c2ccccc2)cc1	16.2	34.7 µM	–
Cc1cc(=O)c2c(=O)oc3c4ccccc4ccc3c2o1	> 200	105 µM	–
CN1CN(c2ccccc2)C2(CCN(CCc3csc4ccccc34)CC2)C1=O	> 200	28.8 µM	–
O=C(Cc1nc2ccccc2o1)C(=O)Nc1ccc(Cl)cc1Cl	> 7.76	> 7.76 µM	–
